The structures appear in SMILES notation.

The target in the first assay is T1, NK-1 receptor (Homo sapiens, UniProt P25103).
T1 construct: an aliquot of IM9 cells; endogenous in cells; host or cells: IM9 cells (whole cells)
T1 sequence (P25103 whole entry): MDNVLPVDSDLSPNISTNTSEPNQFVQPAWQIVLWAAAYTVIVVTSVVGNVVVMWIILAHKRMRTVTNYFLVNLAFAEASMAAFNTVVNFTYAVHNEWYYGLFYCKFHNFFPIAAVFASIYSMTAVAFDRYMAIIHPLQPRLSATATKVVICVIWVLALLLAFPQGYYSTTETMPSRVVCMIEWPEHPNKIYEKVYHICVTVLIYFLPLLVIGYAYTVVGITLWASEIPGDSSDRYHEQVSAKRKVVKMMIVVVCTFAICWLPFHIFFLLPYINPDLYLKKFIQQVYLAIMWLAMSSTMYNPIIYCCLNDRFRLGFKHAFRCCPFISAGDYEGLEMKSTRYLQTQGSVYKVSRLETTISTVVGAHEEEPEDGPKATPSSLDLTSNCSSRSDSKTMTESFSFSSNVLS
The experiment in a line: NK-1 Receptor Binding Assay (competition with labeled substance P on IM9 cells). The settings on record: at 10μM, inhibition of substance P binding to the NK-1 receptor, read-out: Percent Inhibition. On the procedure:
Radioreceptor binding assays were performed using a derivative of a previously published protocol. D.G. Payan, et al., Journal of Immunology, 133:3260-3265 (1984). In this assay an aliquot of IM9 cells (1 x 10⁶ cells/tube in […] medium supplemented with 10% fetal calf serum) was incubated with 20 pM […] substance P in the presence of increasing competitor concentrations for 45 minutes at 4°C.
The IM9 cell line is a well-characterized cell line which is readily available to the public. See. e.g., Annals of the New York Academy of Science, 190: 221-234 (1972); Nature (London), 251:443-444 (1974); Proceedings of the National Academy of Sciences (USA), 71:84-88 (1974). These cells were routinely cultured in RPMI 1640 supplemented with 50 µg/ml gentamicin sulfate and 10% fetal calf serum.
The reaction was terminated by filtration through a glass fiber filter harvesting system using filters previously soaked for 20 minutes in 0.1% polyethylenimine. Specific binding of labeled substance P was determined in the presence of 20 nM unlabeled ligand.
Column 1 provides the example number of the test antagonist compound. The next columns detail the substitution patterns of the test compound.
`Cc1cccc(-c2nc3ccccc3n2Cc2ccccc2Br)c1` [Example 60, 1-(2-Bromobenzyl)-2-(3-methylphenyl)benzimidazole]: the inhibition (as a rule, the percentage by which the read-out fell short of the control) at 10 µM turned out to be 72%. In the case of `Cc1cccc(-c2nc3ccccc3n2Cc2ccccc2Cl)c1` [Example 56, 1-(2-chlorobenzyl)-2-(3-methylphenyl)-benzimidazole], the inhibition at 10 µM turned out to be 71%.

The assay is the same for the next values; noted with them: concentration which inhibits fifty percent of the binding of substance P, 20 pM labeled substance P, 45 minutes at 4°C.
On to `Cc1cccc(-c2nc3ccccc3n2Cc2cccc(Cl)c2)c1` [Example 57, 1-(3-Chlorobenzyl)-2-(3-methylphenyl)benzimidazole], for which the IC50 (commonly the concentration that gives 50% inhibition) turned out to be 2.65 µM. On the same count and under the same terms, under `COc1cc(-c2nc3ccccc3n2Cc2ccccc2F)cc(OC)c1OC` [Example 48, 1-(2-fluorobenzyl)-2-(3,4,5-trimethoxyphenyl)-benzimidazole] stands 1.39 µM.

The target in the next assay is T2, human NK-2 receptor (Homo sapiens, UniProt P21452).
T2 construct: expressed in transfected cells; host or cells: CHO-hNK-2R cells (CHO-derived), membrane preparation
T2 sequence (P21452 1-398): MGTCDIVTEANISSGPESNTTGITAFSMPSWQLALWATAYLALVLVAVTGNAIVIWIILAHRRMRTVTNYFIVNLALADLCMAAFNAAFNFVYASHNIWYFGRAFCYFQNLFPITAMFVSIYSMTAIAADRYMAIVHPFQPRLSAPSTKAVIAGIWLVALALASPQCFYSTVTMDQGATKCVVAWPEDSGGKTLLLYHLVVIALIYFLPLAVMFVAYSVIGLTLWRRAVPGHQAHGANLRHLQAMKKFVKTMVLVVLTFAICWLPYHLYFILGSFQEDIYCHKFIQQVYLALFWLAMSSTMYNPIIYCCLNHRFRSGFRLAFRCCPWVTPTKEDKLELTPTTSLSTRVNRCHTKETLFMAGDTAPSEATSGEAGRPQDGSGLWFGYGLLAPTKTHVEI
The assay can be described thus: NK-2 Receptor Binding Assay (CHO-hNK-2R membranes, iodohistidyl-neurokinin A). To be noted: inhibition of neurokinin A binding at ten micromolar, read-out: Percent Inhibition @ 10 μM. Here is the method: The CHO-hNK-2R cells, a CHO-derived cell line transformed with the human NK-2 receptor, expressing about 400,000 such receptors per cell, were grown in 75 cm flasks or roller bottles in minimal essential medium (alpha modification) with 10% fetal bovine serum. The gene sequence of the human NK-2 receptor is given in N.P. Gerard, et al., Journal of Biological Chemistry, 265:20455-20462 (1990).
For preparation of membranes, 30 confluent roller bottle cultures were dissociated by washing each roller bottle with 10 ml of Dulbecco's phosphate buffered saline (PBS) without calcium and magnesium, followed by addition of 10 ml of enzyme-free cell dissociation solution (PBS-based, from Specialty Media, Inc.). After an additional 15 minutes, the dissociated cells were pooled and centrifuged at 1,000 RPM for 10 minutes in a clinical centrifuge. Membranes were prepared by homogenization of the cell pellets in 300 ml 50 mM Tris buffer, pH 7.4 with a Tekmar® homogenizer for 10-15 seconds, followed by centrifugation at 12,000 RPM (20,000 x g) for 30 minutes using a Beckman JA-14® rotor. The pellets were washed once using the above procedure. and the final pellets were resuspended in 100-120 ml 50 mM Tris buffer, pH 7.4, and 4 ml aliquots stored frozen at -70 °C. The protein concentration of this preparation was 2 mg/ml.
For the receptor binding assay, one 4-ml aliquot of the CHO-hNK-2R membrane preparation was suspended in 40 ml of assay buffer containing 50 mM Tris, pH 7.4, 3 mM manganese chloride, 0.02% bovine serum albumin (BSA) and 4 µg/ml chymostatin. A 200 µl volume of the homogenate (40 µg protein) was used per sample. The radioactive ligand was [[…]]iodohistidyl-neurokinin A (New England Nuclear, NEX-252), 2200 Ci/mmol. The ligand was prepared in assay buffer at 20 nCi per 100 µl; the final concentration in the assay was 20 pM. Non-specific binding was determined using 1 µM eledoisin. Ten concentrations of eledoisin from 0.1 to 1000 nM were used for a standard concentration-response curve.
All samples and standards were added to the incubation in 10 µl dimethylsulfoxide (DMSO) for screening (single dose) or in 5 µl DMSO for IC₅₀ determinations. The order of additions for incubation was 190 or 195 µl assay buffer, 200 µl homogenate, 10 or 5 µl sample in DMSO, 100 µl radioactive ligand. The samples were incubated 1 hr at room temperature and then filtered on a cell harvester through filters which had been presoaked for two hours in 50 mM Tris buffer, pH 7.7, containing 0.5% BSA. The filter was washed 3 times with approximately 3 ml of cold 50 mM Tris buffer, pH 7.7. The filter circles were then punched into 12 x 75 mm polystyrene tubes and counted in a gamma counter.
Table II, infra, provides a representative sample of the effectiveness as NK-2 receptor antagonists of many of the compounds of Formula I. The first column provides the Example number of the compound tested. The second column provides either the percent inhibition of neurokinin A binding when the compound is present in a ten micromolar concentration or the amount of compound (in micromolar amounts) necessary to inhibit fifty percent of the binding of neurokinin A. Those values which represent IC₅₀ values are designated by parentheses.
Regarding `Cc1cccc(-c2nc3ccccc3n2Cc2ccccc2Br)c1` [Example 60, 1-(2-Bromobenzyl)-2-(3-methylphenyl)benzimidazole], the inhibition at 10 µM turned out to be 62.6%.

With `Cc1cccc(-c2nc3ccccc3n2Cc2cccc(Cl)c2)c1` [Example 57, 1-(3-Chlorobenzyl)-2-(3-methylphenyl)benzimidazole], the inhibition at 10 µM worked out at 50.8%.

For the molecule `Cc1cccc(-c2nc3ccc(OCCN4CCCCCC4)cc3n2Cc2ccccc2)c1` [Example 92, 1-benzyl-2-(3-methylphenyl)-6-[2-(hexamethyleneimin-1-yl)ethoxy]benzimidazole], the inhibition at 10 µM came out at 82.5%. In the case of `Cc1cccc(-c2nc3ccccc3n2Cc2ccccc2Cl)c1` [Example 56, 1-(2-chlorobenzyl)-2-(3-methylphenyl)-benzimidazole], the inhibition at 10 µM worked out at 63.7%. Same read-out and setting: the figure for `COc1cc(-c2nc3ccccc3n2Cc2ccccc2F)cc(OC)c1OC` [Example 48, 1-(2-fluorobenzyl)-2-(3,4,5-trimethoxyphenyl)-benzimidazole] is 44.2%; for `COc1cc(-c2nc3ccc(O)cc3n2Cc2ccccc2Br)cc(OC)c1OC` [Example 114, 1-(2-bromobenzyl)-2-(3,4,5-trimethoxyphenyl)-6-hydroxybenzimidazole] it is 57.4%; for `Cc1cccc(-c2nc3ccc(OCCCCl)cc3n2Cc2ccccc2)c1` [Example 97, 1-benzyl-2-(3-methylphenyl)-6-(3-chloropropoxy)-benzimidazole] it is 64.4%.

`Cc1cccc(-c2nc3ccc(OCCCN(C)C)cc3n2Cc2ccccc2)c1` [Example 94, 1-benzyl-2-(3-methylphenyl)-6-[3-(N,N-dimethylamino)propoxy]benzimidazole]: the inhibition at 10 µM was 38.4%. The same measure, in the same setting: the figure for `CCN(CCOc1ccc2nc(-c3cccc(C)c3)n(Cc3ccccc3)c2c1)c1ccccc1` [Example 90, 1-benzyl-2-(3-methylphenyl)-6-[2-(N-phenyl-N-ethylamino)ethoxy]benzimidazole] is 34%. Consider `Cc1cccc(-c2nc3ccc(OCCN4CCCC4)cc3n2Cc2ccccc2)c1` [Example 86, 1-benzyl-2-(3-methylphenyl)-6-[2-(1-pyrrolidinyl)ethoxy]benzimidazole], for which the inhibition at 10 µM is 48.5%. Take `Cc1cccc(-c2nc3ccc(O)cc3n2Cc2ccccc2C(F)(F)F)c1` [Example 120, 1-(2-trifluoromethylbenzyl)-2-(3-methylphenyl)-6-hydroxybenzimidazole]: the inhibition at 10 µM was found to be 55.9%. On the same count and under the same terms, under `Cc1cccc(-c2nc3ccc(OCCN(C(C)C)C(C)C)cc3n2Cc2ccccc2)c1` [Example 91, 1-benzyl-2-(3-methylphenyl)-6-[2-(N,N-isopropylamino)ethoxy]benzimidazole] stands 60.7%.

Turning to `Cc1cccc(-c2nc3ccc(OCCN4CCOCC4)cc3n2Cc2ccccc2)c1` [Example 87, 1-benzyl-2-(3-methylphenyl)-6-[2-(4-morpholinyl)ethoxy]benzimidazole], the inhibition at 10 µM came out at 81.9%. For `Cc1cccc(-c2nc3ccc(OCCN(C)C)cc3n2Cc2ccccc2)c1` [Example 88, 1-benzyl-2-(3-methylphenyl)-6-[2-(N,N-dimethylamino)ethoxy]benzimidazole], the inhibition at 10 µM was 31.6%.

On to `Cc1cccc(-c2nc3ccc(OCCCN4CCCCC4)cc3n2Cc2ccccc2)c1` [Example 95, 1-benzyl-2-(3-methylphenyl)-6-[3-(piperdin-1-yl)propoxy]benzimidazole], for which the inhibition at 10 µM stood at 80.4%. Turning to `Cc1cccc(-c2nc3ccc(OCCN(Cc4ccccc4)Cc4ccccc4)cc3n2Cc2ccccc2)c1` [Example 89, 1-benzyl-2-(3-methylphenyl)-6-[2-(N,N-dibenzylamino)ethoxy]benzimidazole], the inhibition at 10 µM was found to be 24.5%. As to `CCN(CC)CCOc1ccc2nc(-c3cccc(C)c3)n(Cc3ccccc3)c2c1` [Example 93, 1-benzyl-2-(3-methylphenyl)-6-[2-(N,N-diethylamino)ethoxy]benzimidazole], the inhibition at 10 µM stood at 42%. On the same count and under the same terms, the figure for `Cc1cccc(-c2nc3ccc(OCC(C)N(C)C)cc3n2Cc2ccccc2)c1` (centres unmarked) [Example 96, 1-benzyl-2-(3-methylphenyl)-6-[2-(N,N-dimethylamino)propoxy]-benzimidazole] is 34%; for `COc1cc(-c2nc3ccc(O)cc3n2Cc2ccccc2C(F)(F)F)cc(OC)c1OC` [Example 104, 1-(2-trifluoromethylbenzyl)-2-(3,4,5-trimethoxyphenyl)-6-hydroxybenzimidazole] it is 39.3%.

Staying with this assay, now noted: values in parentheses, amount necessary to inhibit fifty percent of the binding of neurokinin A.
As for `Cc1cccc(-c2nc3ccc(OCCCN4CCOCC4)cc3n2Cc2ccccc2)c1` [Example 99, 1-benzyl-2-(3-methylphenyl)-6-[3-(morpholin-4-yl)propoxy)benzimidazole], the IC50 was 3.08 µM. The same measure, in the same setting: under `Cc1cccc(-c2nc3ccc(OCCCN4CCCC4)cc3n2Cc2ccccc2)c1` [Example 100, 1-benzyl-2-(3-methylphenyl)-6-[3-(pyrrolidin-1-yl)propoxy)benzimidazole] stands 6.8 µM. On the same count and under the same terms, the figure for `Cc1cccc(-c2nc3ccc(OCCCl)cc3n2Cc2ccccc2)c1` [Example 98, 1-benzyl-2-(3-methylphenyl)-6-(2-chloroethoxy)-benzimidazole] is 7.24 µM; for `COc1cc(-c2nc3ccc(OCCN4CCCCC4)cc3n2Cc2ccccc2C(F)(F)F)cc(OC)c1OC` [Example 105, 1-(2-trifluoromethylbenzyl)-2-(3,4,5-trimethoxyphenyl)-6-[2-(piperidin-1-yl)ethoxy]benzimidazole] it is 5.17 µM. As to `COc1cc(-c2nc3ccc(OCCN4CCCCC4)cc3n2Cc2ccccc2Br)cc(OC)c1OC` [Example 115, 1-(2-bromobenzyl)-2-(3,4,5-trimethoxyphenyl)-6-[2-(piperidin-1-yl)ethoxy]benzimidazole], the IC50 stood at 4.29 µM. Same read-out and setting: the figure for `Cc1cccc(-c2nc3ccc(OCCCN4CCCCCC4)cc3n2Cc2ccccc2)c1` [Example 101, 1-benzyl-2-(3-methylphenyl)-6-[3-(hexamethyleneimin-1-yl)propoxy)benzimidazole] is 1.04 µM.

The record behind these values is patent EP0694535A1, “Non-peptidyl tachykinin receptor antagonists” (ELI LILLY AND COMPANY, priority 1994, dated 1996).
